Results: publication PMC10314922, “Fluorescence lifetime FRET assay for live-cell high-throughput screening of the cardiac SERCA pump yields multiple classes of small-molecule allosteric modulators” (Scientific Reports, 2023)
Values joined by “and” are separate entries in the source; they are usually repeats but may differ in a detail not shown here. Equal values may be shown once.

Columns and labels:
SERCA2a [1] = target: T1, SERCA2a (Sus scrofa, UniProt P11607); assay: Oxalate-supported Fluo-4 Ca2+-uptake (Ca2+-transport) assay in pig cardiac SR (pCSR) vesicles; assay type: biochemical; details: for Ca2+-Uptake C10: concentration yielding 10% effect; for Ca2+-Uptake ΔFMID / Ca2+-Uptake ΔFMAX: maximal compound effect vs DMSO control, pCSR; for Effect on Ca2+-uptake (category, Fig. 4A): activators, categories activate / uncouple / inhibit; for CR (coupling ratio) VU/VA: maximum Ca2+-uptake rate / Ca2+-ATPase rate at [Ca2+]MAX, DMSO control = 0.66
T1 construct: Cardiac SR vesicles were isolated from fresh porcine left ventricular tissue using differential centrifugation; from tissue; host or cells: porcine left ventricular tissue (cardiac SR vesicles)
Procedure: (§1) Cardiac SR vesicles were isolated from fresh porcine left ventricular tissue using differential centrifugation of the homogenized tissue as previously described. The SR vesicles were flash-frozen and stored at − 80 °C until needed. The SERCA concentration in the ER preparations purified from HEK cell homogenate is at least 10 times less than in purified porcine cardiac SR[20], but there was sufficient expression of the fluorescent SERCA2a biosensor in HEK cells to detect FRET with high precision by FLT[22],[23],[26].
Ca^2+-transport assays were performed with similar porcine SR samples as in the Ca^2+-ATPase assays described above. The compound effect on the Ca^2+-transport activity of SERCA2a was determined using an oxalate-supported assay in which the change in fluorescence in a Ca^2+-sensitive dye, Fluor-4, was determined as previously described. A buffered solution containing 50 mM MOPS (pH 7.0), 100 mM KCl, 30 mg/mL sucrose, 1 mM EGTA, 10 mM potassium oxalate, 2 µM Fluo-4, 30 µg/mL porcine cardiac SR vesicles, CaCl2 calculated to reach the free [Ca^2+] (pCa 8.0, 6.2, and 5.4), and compound (0.048 to 50 μM) was dispensed into 384-well black walled, transparent bottomed plates (Greiner Bio-One) containing the tested small molecule and incubated at 22℃ for 20 min while covered and protected from light. To start the reaction, MgATP was added to a final concentration of 5 mM, and the decrease in 485-nm excited fluorescence of Fluo-4 was monitored at 520 nm for 15 min using a FLIPR Tetra (Molecular Devices, San Jose, CA).
(§2) SERCA2a activity, F (rate of ATP hydrolysis or Ca^2+ uptake), was measured at varying pCa and varying compound concentration. F measured at [Ca^2+]MAX (saturating, pCa 5.4) or [Ca^2+]MID (subsaturating, midpoint, pCa 6.2) was corrected by subtracting the basal rate at pCa 8.0) and the % effect due to compound was reported. Concentration response curves (CRC) were fitted using the Hill function to determine VMAX (the activity at saturating [compound]), and EC50, the compound concentration at 50% effect.

SERCA2a [2] = target: T1, SERCA2a; assay: NADH-linked Ca2+-ATPase activity assay in pig cardiac SR (pCSR) vesicles; assay type: biochemical; details: for Ca2+-ATPase ΔFMAX / Ca2+-ATPase ΔFMID: maximal compound effect vs DMSO control, pCSR; for Effect on Ca2+-ATPase activity (category, Fig. 4A): activators, categories activate / uncouple / inhibit
Procedure: as §1
Functional assays were performed using porcine cardiac SR (pCSR) vesicles. An enzyme-coupled, NADH-linked ATPase assay was used to measure SERCA ATPase activity in 384-well microplates. Each well contained 50 mM MOPS (pH 7.0), 100 mM KCl, 1 mM EGTA, 0.2 mM NADH, 1 mM phosphoenol pyruvate, 10 IU/mL of pyruvate kinase, 10 IU/mL of lactate dehydrogenase, 7 µM of the calcium ionophore A23187 (Sigma), and CaCl2 was added to set free [Ca^2+] to three different concentrations. Ca^2+-ATPase activity was measured at three [Ca^2+]: [Ca^2+]MAX (saturating, pCa 5.4), [Ca^2+]MID (subsaturating, midpoint, pCa 6.2), and [Ca^2+]BAS (basal non-activating, pCa 8.0). 10 μg/mL of SR vesicle, calcium, compound (0.048 to 50 μM), and assay mix were incubated for 20 min at room temperature before measurement of functional assays with each of the 18 hit compounds, because a shorter incubation time than the FRET live-cell assays achieved optimal responses. The assay was started upon the addition of MgATP, at a final concentration of 5 mM (total volume to 80 μL), and absorbance was read at 340 nm in a SpectraMax Plus^384 microplate spectrophotometer (Molecular Devices, Sunnyvale, CA).
as §2

[3] = [Ca2+]MAX (pCa5.4), concentration yielding 10% effect
[4] = [Ca2+]MID (pCa6.2), concentration yielding 10% effect

T1 sequence (P11607 1-997 isoform P11607-2): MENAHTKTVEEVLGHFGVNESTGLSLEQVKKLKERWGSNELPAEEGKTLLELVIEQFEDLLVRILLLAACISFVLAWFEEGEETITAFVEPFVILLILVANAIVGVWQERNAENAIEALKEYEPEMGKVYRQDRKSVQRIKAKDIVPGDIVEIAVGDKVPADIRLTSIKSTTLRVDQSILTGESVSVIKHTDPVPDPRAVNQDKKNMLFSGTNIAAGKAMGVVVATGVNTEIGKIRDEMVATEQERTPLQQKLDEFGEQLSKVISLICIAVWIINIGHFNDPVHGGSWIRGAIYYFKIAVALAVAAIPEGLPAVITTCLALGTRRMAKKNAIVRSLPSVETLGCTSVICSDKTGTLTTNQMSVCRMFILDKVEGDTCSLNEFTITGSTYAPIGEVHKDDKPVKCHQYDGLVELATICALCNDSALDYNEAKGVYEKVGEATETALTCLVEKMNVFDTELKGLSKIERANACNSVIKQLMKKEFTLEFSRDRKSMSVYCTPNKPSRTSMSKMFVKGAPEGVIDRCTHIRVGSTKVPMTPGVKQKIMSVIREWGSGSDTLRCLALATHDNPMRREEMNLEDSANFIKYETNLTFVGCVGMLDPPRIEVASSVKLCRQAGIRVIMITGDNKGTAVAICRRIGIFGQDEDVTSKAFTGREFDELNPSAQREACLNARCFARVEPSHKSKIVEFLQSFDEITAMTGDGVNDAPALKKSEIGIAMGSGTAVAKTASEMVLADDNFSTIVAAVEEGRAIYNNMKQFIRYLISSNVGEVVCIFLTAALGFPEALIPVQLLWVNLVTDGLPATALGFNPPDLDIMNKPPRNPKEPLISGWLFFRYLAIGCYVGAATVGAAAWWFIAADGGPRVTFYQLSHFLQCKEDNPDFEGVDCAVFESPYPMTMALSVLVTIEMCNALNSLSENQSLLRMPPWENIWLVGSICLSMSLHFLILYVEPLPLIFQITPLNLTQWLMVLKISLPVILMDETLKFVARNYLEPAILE

SMILES	EC50 (SERCA2a [1]; [Ca2+]MAX (pCa5.4)) [µM]	Ca2+-Uptake C10 (SERCA2a [1]; [Ca2+]MAX (pCa5.4))	Decrease (inhibition) of Ca2+-uptake at [Ca2+]MAX (SERCA2a [1]; [Ca2+]MAX, size of decrease) [%]	EC50 (SERCA2a [1]; [Ca2+]MID (pCa6.2)) [µM]	Ca2+-Uptake C10 (SERCA2a [1]; [Ca2+]MID (pCa6.2))	Ca2+-Uptake ΔFMID (SERCA2a [1]; [Ca2+]MID (pCa6.2))	Effect on Ca2+-uptake (category, Fig. 4A) (SERCA2a [1])	CR (coupling ratio) VU/VA (SERCA2a [1])	Increase in Ca2+-ATPase activity (SERCA2a [2])	Ca2+-ATPase C10 (SERCA2a [2]; [3]) [µM]	Ca2+-ATPase ΔFMAX (SERCA2a [2]; [Ca2+]MAX (pCa5.4))	EC50 (SERCA2a [2]; [Ca2+]MID (pCa6.2)) [µM]	Ca2+-ATPase C10 (SERCA2a [2]; [4]) [µM]	Ca2+-ATPase ΔFMID (SERCA2a [2]; [Ca2+]MID (pCa6.2))	Effect on Ca2+-ATPase activity (category, Fig. 4A) (SERCA2a [2])	Ca2+-Uptake ΔFMAX (SERCA2a [1]; [Ca2+]MAX (pCa5.4))	Increase in Ca2+-uptake (SERCA2a [1]; over [Ca2+]MAX and [Ca2+]MID)	Ca2+-ATPase C10 (SERCA2a [2]; [Ca2+]MAX) [µM]	EC50 (SERCA2a [2]; [Ca2+]MAX (pCa5.4)) [µM]
O=C(c1ccc(-c2ccc(O)cc2)nc1)N1CCC(CCc2ccccc2)CC1 [Compound 6, 4-(5-{[4-(2-phenylethyl)piperidin-1-yl]carbonyl}pyridin-2-yl)phenol]	16 ± 1.2	15 µM and 15.1 µM	21	2.9 ± 1	4 µM and 4.2 µM	17% and 17 ± 1.4%	inhibit	0.48	10–25%	9.7	25% and 25 ± 6.3%	11.1 ± 1.5	8.7	30% and 30 ± 10%	activate	–	–	–	–
CCn1nc(C)c(CN2CCCC(Nc3ccc(C(C)C)cc3)C2)c1C (centres unmarked) [Compound 7, 1-[(1-ethyl-3,5-dimethyl-1H-pyrazol-4-yl)methyl]-N-(4-isopropylphenyl)-3-piperidinamine]	–	14 µM	–	–	21 µM and 20.6 µM	19% and 19 ± 9.8%	activate	0.74	–	25	14% and 14 ± 2%	–	–	7% and 7 ± 3%	activate	24% and 24 ± 10%	–	–	–
COc1ccc(C(=O)C2CCCN(Cc3nc(-c4ccc(F)cc4)cs3)C2)c(OC)c1 (centres unmarked) [Compound 8, (2,4-dimethoxyphenyl)(1-{[4-(4-fluorophenyl)-1,3-thiazol-2-yl]methyl}-3-piperidinyl)methanone]	–	25 µM	–	–	–	7% and 7 ± 3.0%	uncouple	0.4	–	4.3	49% and 49 ± 4.8%	10 ± 1.9	7.8	31% and 31 ± 14%	activate	10% and 10 ± 6.5%	0.5–10%	4.3	8.3 ± 0.9
OCC1(Cc2ccccc2F)CCCN(Cc2cc3c(cc2Cl)OCO3)C1 (centres unmarked) [Compound 12, [1-[(6-chloro-1,3-benzodioxol-5-yl)methyl]-3-(2-fluorobenzyl)-3-piperidinyl]methanol]	1.8 ± 0.1	0.4 µM	–	3.2 ± 0.1	0.8 µM	–	–	–	–	1.0	–	4.2 ± 0.4	1.0	–	–	–	–	–	3.8 ± 0.3
